Assays:
[1] = tested on: panel of five tumor cell lines (HD-MB03, RPMI-8402, SU-DHL-8, A549, MDA-MB-231); test: Antiproliferative activity, range over the panel of five tumor cell lines; type: cell-based; conditions: Homo sapiens; range over the active cell lines of the five-line panel; 72 h
Experimental: The synthesized quinoline derivatives 4a–z and 4aa–ah were evaluated in vitro for their antiproliferative activity against a panel of five tumor cell lines (HD‐MB03, medulloblastoma; RPMI‐8402, T‐lymphoblastic leukemia; SU‐DHL‐8, B lymphocyte, large cell lymphoma; A549, non‐small cell lung cancer; MDA‐MB‐231, triple‐negative breast cancer) (Table 2). […] Replacing the 4‐Cl group with a trifluoromethyl group (4ac) reduced antiproliferative activity.
(§1) To test the newly synthesized compounds, various human cell lines were employed. HD‐MB03 cells were purchased from DSMZ (Braunschweig, Germany), while A549, MDA‐MB‐231, RPMI‐8420, SU‐DHL‐8, TOLEDO, VL51, SU‐DHL‐1, SU‐DHL‐18, and KM‐H2 were obtained from ATCC (Manassas, VA, USA). Cells were cultured in DMEM (for MDA‐MB‐231 and A549) or RPMI‐1640 (for RPMI‐8420, SU‐DHL‐8, TOLEDO, VL51, SU‐DHL‐1, SU‐DHL‐18, KM‐H2, and HD‐MB03) media (Gibco, Milan, Italy). Both media were supplemented with 115 units/mL penicillin G (Gibco, Milan, Italy), 115 µg/mL streptomycin (Invitrogen, Milan, Italy), and 10% fetal bovine serum (Invitrogen, Milan, Italy). Peripheral blood mononuclear cells (PBMCs) were isolated from healthy donors as previously described. For cytotoxicity assays, PBMCs were resuspended at 5 × 10⁵ cells/mL in complete RPMI medium with or without 2.5 µg/mL phytohemagglutinin (PHA) (Irvine Scientific) to stimulate T‐cell activation and proliferation. All cell lines were maintained at 37°C in a humidified atmosphere containing 5% CO₂. All compounds were dissolved in DMSO at a 10 mM stock concentration. For dose–response assays, cells were seeded in 96‐well plates at densities optimized for each cell line: HD‐MB03 at 10,000 cells/well, A549 at 4000 cells/well, and MDA‐MB‐231 at 7000 cells/well. All other cell lines were seeded at 20,000 cells/well in a final volume of 100 µL per well. After 24 h, cells were treated with a 6‐point serial dilution of compounds starting from 10 µM, in triplicate for statistical analysis. Seventy‐2 h posttreatment, 10 µL of resazurin solution (100 µg/mL) was added to each well, and cells were incubated for an additional 3–6 h. Fluorescence was measured using a Spark 10 M microplate reader (Tecan Group Ltd., Männedorf, Switzerland) with excitation at 535 nm and emission at 600 nm. The IC₅₀ was defined as the concentration of compound required to inhibit cell proliferation by 50% compared to cells treated with the highest DMSO concentration.

[2] = tested on: panel of five lymphoma cell lines (VL51, TOLEDO, SU-DHL-18, SU-DHL-1, KM-H2); test: Antiproliferative activity, range over the panel of five lymphoma cell lines; type: cell-based, human; conditions: range or statement over the lymphoma cell lines, 72 h; for IC50: Homo sapiens
From the text: Based on these interesting results on hematological malignancies‐derived cell lines, styrylquinolines 4i, 4n, 4s and 4ah were further tested for their antiproliferative activity on a panel of five lymphoma cell lines (VL51, splenic B‐cell lymphoma; TOLEDO, diffuse large B‐cell lymphoma, non‐Hodgkin lymphoma; SU‐DHL‐18, lymph node lymphoma; SU‐DHL‐1, histiocytic large cell lymphoma; KM‐H2, Hodgkin lymphoma) (Table 3). In this case, a different behaviour was observed.
as §1

SU-DHL-18 = test: Antiproliferative activity on lymphoma-derived cell lines, resazurin; type: cell-based; conditions: Homo sapiens; lymph node lymphoma; 72 h of treatment; mean ± SEM
Experimental: as §1
(§2) To test the newly synthesized compounds, various human cell lines were employed. HD-MB03 cells were purchased from DSMZ (Braunschweig, Germany), while A549, MDA-MB-231, RPMI-8420, SU-DHL-8, TOLEDO, VL51, SU-DHL-1, SU-DHL-18, and KM-H2 were obtained from ATCC (Manassas, VA, USA). Cells were cultured in DMEM (for MDA-MB-231 and A549) or RPMI-1640 (for RPMI-8420, SU-DHL-8, TOLEDO, VL51, SU-DHL-1, SU-DHL-18, KM-H2, and HD-MB03) media (Gibco, Milan, Italy). Both media were supplemented with 115 units/mL penicillin G (Gibco, Milan, Italy), 115 µg/mL streptomycin (Invitrogen, Milan, Italy), and 10% fetal bovine serum (Invitrogen, Milan, Italy). Peripheral blood mononuclear cells (PBMCs) were isolated from healthy donors as previously described. ^[1] For cytotoxicity assays, PBMCs were resuspended at 5 × 10⁵ cells/mL in complete RPMI medium with or without 2.5 µg/mL phytohemagglutinin (PHA) (Irvine Scientific) to stimulate T cell activation and proliferation. All cell lines were maintained at 37 °C in a humidified atmosphere containing 5% CO₂. All compounds were dissolved in DMSO at a 10 mM stock concentration. For dose–response assays, cells were seeded in 96-well plates at densities optimized for each cell line: HD-MB03 at 10,000 cells/well, A549 at 4,000 cells/well, and MDA-MB-231 at 7,000 cells/well. All other cell lines were seeded at 20,000 cells/well in a final volume of 100 µL per well. After 24 hours, cells were treated with a 6-point serial dilution of compounds starting from 10 µM, in triplicate for statistical analysis. Seventy-two hours post-treatment, 10 µL of resazurin solution (100 µg/mL) was added to each well, and cells were incubated for an additional 3–6 hours. Fluorescence was measured using a Spark 10M microplate reader (Tecan Group Ltd., Männedorf, Switzerland) with excitation at 535 nm and emission at 600 nm. […]

SU-DHL-1 = test: as above; type: cell-based; conditions: Homo sapiens, histiocytic large cell lymphoma, 72 h of treatment, mean ± SEM
Experimental: as §1, §2

VL51 = test: Mitochondrial ROS detection (MitoSOX); type: cell-based, human; conditions: 24 h of treatment
Experimental: (§3) Cells were plated in 12‐well plates at 0.2 × 10⁶ cells/mL in 1 mL of complete medium. After 24 h, cells were treated with the indicated compound concentrations. Following a 24‐h treatment, cells were stained with 0.5 µM MitoSOX (Invitrogen, US) for 20 min. After washing with PBS, fluorescence was measured using a CytoFLEX flow cytometer (Beckman Coulter) and analyzed with FlowJo software v.10.7.1.

TOLEDO [3] = test: Mitochondrial ROS detection (MitoSOX); type: cell-based, human; conditions: 24 h of treatment
Experimental: as §3

TOLEDO [4] = test: Cell-cycle analysis (flow cytometry); type: cell-based, human; conditions: 2 µM, 48 h
Experimental: Cells were plated in 12‐well plates at 0.2 × 10⁶ cells/mL in 1 mL of complete medium. After 24 h, cells were treated with the specified compound concentrations. […] Cells were then stained and processed as previously described. Data acquisition was performed using a Coulter Cytomics FC500 flow cytometer (Beckman Coulter).

Row | Compound | IC50 [1] [µM] | IC50 [2] [µM] | IC50 (SU-DHL-18) [µM] | IC50 (SU-DHL-1) [µM] | Mitochondrial ROS (MitoSOX-positive cells) (VL51) | Mitochondrial ROS (MitoSOX-positive cells) (TOLEDO [3]) | Cell-cycle distribution (TOLEDO [4]) | IC50 values, range over lymphoma cell lines [2]
1 | O=C(Nc1ccc(Cl)cc1)c1cc(/C=C/c2ccccc2[N+](=O)[O-])nc2ccccc12 [4ah, (E)-N-(4-chlorophenyl)-2-(2-nitrostyryl)quinoline-4-carboxamide] | 1.33 to 6.92 | 3.79 to 6.74 | 3.79 ± 0.51 | 4.9 ± 0.31 |  |  |  | 
2 | O=C(Nc1ccc([N+](=O)[O-])cc1)c1cc(/C=C/c2ccccc2)nc2ccccc12 [4i, (E)-N-(4-nitrophenyl)-2-styrylquinoline-4-carboxamide] |  | 1.03 to 7.6 | 7.6 ± 2.8 | 2.32 ± 1.46 | marked dose‐dependent increase of mitochondrial ROS | marked dose‐dependent increase of mitochondrial ROS | significant accumulation of cells in the G₂/M phase | 
3 | COc1cc(/C=C/c2cc(C(=O)Nc3c(C)cccc3C)c3ccccc3n2)cc(OC)c1OC [4n, (E)-N-(2,6-dimethylphenyl)-2-(3,4,5-trimethoxystyryl)quinoline-4-carboxamide] |  |  | > 10 | > 10 |  |  |  | devoid of antiproliferative activity
4 | COc1cc(/C=C/c2cc(C(=O)Nc3ccc([N+](=O)[O-])cc3)c3ccccc3n2)cc(OC)c1OC [4s, (E)-N-(4-nitrophenyl)-2-(3,4,5-trimethoxystyryl)quinoline-4-carboxamide] |  |  | > 10 | > 10 |  |  |  | devoid of antiproliferative activity

From PMC12645083, “Microwave‐Enhanced Synthesis of 2‐Styrylquinoline‐4‐Carboxamides With Promising Anti‐Lymphoma Activity” (Archiv Der Pharmazie, 2025)
